Tested on: 233499-124-R-J3-PDC complex spheroid viability
Assay: Anticancer human tumor 233499-124-R-J3-PDC patient-derived colon adenocarcinoma cell line growth inhibition [CLK]
Details: for IC50: curve of first compound; for viability, T/C: stronger effect = lower value
How it was run: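 Patient-derived tumor cells grown as complex spheroids with HUVEC endothelial cells and mesenchymal stem cells, treated with drug combinations. Concentrations descend in half-log steps from near clinical Cmax, or from 10 microM if Cmax unknown.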
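Also: spheroids exposed to the drug combinations for seven days.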
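For viability, T/C in this document: percent viability relative to DMSO vehicle control wells taken as 100%.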

Structure (SMILES): CC(CO)NC(=O)c1cc(-c2ccc(Cl)cc2)nn(-c2cnn(C)c2)c1=O (configuration not stated) + CNC(=O)c1ccc(Nc2nc(OC3CCCC3)c3c(-c4ccc5nc(C)oc5c4)c[nH]c3n2)c(OC)c1
- IC50 (second compound 0.0316 µM): > 10 µM
- IC50 (second compound 0.1 µM): > 10 µM
- IC50 (second compound 0.316 µM): > 10 µM
- IC50 (second compound 1 µM): > 10 µM
- IC50 (second compound 3.16 µM): > 10 µM
- IC50 (second compound 10 µM): > 10 µM
- viability, T/C (second compound 0.0316 µM, first compound 0.0316 µM): 94.6%
- viability, T/C (second compound 0.0316 µM, first compound 0.1 µM): 98.2%
- viability, T/C (second compound 0.0316 µM, first compound 0.316 µM): 90.1%
- viability, T/C (second compound 0.0316 µM, first compound 1 µM): 94.6%
- viability, T/C (second compound 0.0316 µM, first compound 3.16 µM): 94%
- viability, T/C (second compound 0.0316 µM, first compound 10 µM): 88.9%
- viability, T/C (second compound 0.1 µM, first compound 0.0316 µM): 83.5%
- viability, T/C (second compound 0.1 µM, first compound 0.1 µM): 84.7%
- viability, T/C (second compound 0.1 µM, first compound 0.316 µM): 71.9%
- viability, T/C (second compound 0.1 µM, first compound 1 µM): 80.6%
- viability, T/C (second compound 0.1 µM, first compound 3.16 µM): 87.8%
- viability, T/C (second compound 0.1 µM, first compound 10 µM): 61.9%
- viability, T/C (second compound 0.316 µM, first compound 0.0316 µM): 91.4%
- viability, T/C (second compound 0.316 µM, first compound 0.1 µM): 64.6%
- viability, T/C (second compound 0.316 µM, first compound 0.316 µM): 88.5%
- viability, T/C (second compound 0.316 µM, first compound 1 µM): 83.9%
- viability, T/C (second compound 0.316 µM, first compound 3.16 µM): 83.5%
- viability, T/C (second compound 0.316 µM, first compound 10 µM): 66.6%
- viability, T/C (second compound 1 µM, first compound 0.0316 µM): 84.3%
- viability, T/C (second compound 1 µM, first compound 0.1 µM): 85%
- viability, T/C (second compound 1 µM, first compound 0.316 µM): 86.5%
- viability, T/C (second compound 1 µM, first compound 1 µM): 86.7%
- viability, T/C (second compound 1 µM, first compound 3.16 µM): 81.9%
- viability, T/C (second compound 1 µM, first compound 10 µM): 79.2%
- viability, T/C (second compound 3.16 µM, first compound 0.0316 µM): 84.6%
- viability, T/C (second compound 3.16 µM, first compound 0.1 µM): 59.3%
- viability, T/C (second compound 3.16 µM, first compound 0.316 µM): 62.4%
- viability, T/C (second compound 3.16 µM, first compound 1 µM): 83.3%
- viability, T/C (second compound 3.16 µM, first compound 3.16 µM): 83.7%
- viability, T/C (second compound 3.16 µM, first compound 10 µM): 70.8%
- viability, T/C (second compound 10 µM, first compound 0.0316 µM): 68.6%
- viability, T/C (second compound 10 µM, first compound 0.1 µM): 73.9%
- viability, T/C (second compound 10 µM, first compound 0.316 µM): 69.8%
- viability, T/C (second compound 10 µM, first compound 1 µM): 72.2%
- viability, T/C (second compound 10 µM, first compound 3.16 µM): 69.7%
- viability, T/C (second compound 10 µM, first compound 10 µM): 64.2%

Reference: PubChem BioAssay AID2060613 (Molecular Pharmacology Branch, DTP, NCI, 2025)
